Source: ChEMBL document CHEMBL1143404, “New plasmid-mediated fluoroquinolone efflux pump, QepA, found in an Escherichia coli clinical isolate” (2007)
≈ marks a conversion by molar mass, not a printed value. Calls of active or inactive are those of the source. No cut-off for these calls is given here.

Key:
Escherichia coli [1] = experiment: Antimicrobial activity against multidrug-resistant Escherichia coli C316 pHPA containing mutated GyrA gene by agar dilution method; format: functional
Escherichia coli [2] = experiment: Antimicrobial activity against Escherichia coli KAM32 pHPA containing mutated GyrA gene by agar dilution method; format: functional
Escherichia coli [3] = experiment: Antimicrobial activity against Escherichia coli KAM32 expressing deltaacrB ydhE hsd gene by agar dilution method; format: functional
Escherichia coli [4] = experiment: Antimicrobial activity against Escherichia coli KAM32 pSTV28 containing chloramphenicol-resistant vector by agar dilution method; format: functional
Escherichia coli [5] = experiment: Antimicrobial activity against Escherichia coli KAM32 pSTVqepA containing qepA gene ligated to pSTV28 plasmid by agar dilution method; format: functional
Escherichia coli [6] = experiment: Antimicrobial activity against Escherichia coli KAM32 pSTVdeltaqepA containing disrupted qepA gene by agar dilution method; format: functional
Escherichia coli [7] = experiment: Ratio of MIC for Escherichia coli KAM32 pSTVqepA mutant to MIC for Escherichia coli KAM32 pSTV28 mutant; format: functional
[8] = target: T1, Plasmid efflux fluoroquinolone (Escherichia coli) (UniProt A5H8A5); experiment: Inhibition of qepA-mediated drug efflux in Escherichia coli KAM32 assessed as increase in accumulation of Norfloxacin by fluorescence spectroscopy
T1 sequence (whole entry): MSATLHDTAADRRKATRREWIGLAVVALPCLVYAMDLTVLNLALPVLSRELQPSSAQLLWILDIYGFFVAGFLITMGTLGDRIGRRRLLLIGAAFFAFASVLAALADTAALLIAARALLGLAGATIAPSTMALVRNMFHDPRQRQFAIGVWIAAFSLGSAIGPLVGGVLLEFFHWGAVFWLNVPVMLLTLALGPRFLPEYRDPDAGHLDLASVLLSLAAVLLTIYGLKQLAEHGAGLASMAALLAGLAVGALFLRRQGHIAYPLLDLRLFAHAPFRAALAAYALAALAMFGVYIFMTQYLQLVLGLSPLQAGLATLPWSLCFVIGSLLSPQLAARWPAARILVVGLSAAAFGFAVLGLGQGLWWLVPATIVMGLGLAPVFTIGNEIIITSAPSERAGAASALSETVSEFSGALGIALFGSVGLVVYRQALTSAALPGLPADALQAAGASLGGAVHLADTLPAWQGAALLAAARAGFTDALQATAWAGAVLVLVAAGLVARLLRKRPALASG

Row | Structure (SMILES) | MIC (Escherichia coli [1]) | MIC (Escherichia coli [2]) | MIC (Escherichia coli [3]) | MIC (Escherichia coli [4]) | MIC (Escherichia coli [5]) | MIC (Escherichia coli [6]) | Ratio (Escherichia coli [7]) | Activity [8]
1 | CC1(C)S[C@@H]2[C@H](NC(=O)[C@H](N)c3ccccc3)C(=O)N2[C@H]1C(=O)O [AMPICILLIN] | > 128 µg/mL | > 128 µg/mL | – | – | – | – | – | –
2 | N#CC(C#N)=NNc1cccc(Cl)c1 [CARBONYL CYANIDE M-CHLOROPHENYLHYDRAZONE] | 16 µg/mL (≈ 78.2 µM) | 16 µg/mL (≈ 78.2 µM) | 16 µg/mL (≈ 78.2 µM) | 16 µg/mL (≈ 78.2 µM) | 16 µg/mL (≈ 78.2 µM) | 16 µg/mL (≈ 78.2 µM) | 1 | Active
3 | O=C(O)c1cn(C2CC2)c2cc(N3CCNCC3)c(F)cc2c1=O [CIPROFLOXACIN] | > 128 µg/mL | 0.064 µg/mL (≈ 0.193 µM) | – | – | – | – | – | –
4 | C[C@H](CCC(=O)O)[C@H]1CC[C@H]2[C@@H]3CC[C@@H]4C[C@H](O)CC[C@]4(C)[C@H]3C[C@H](O)[C@]12C [DEOXYCHOLIC ACID] | > 1020 µg/mL | 512 µg/mL (≈ 1300 µM) | 1020 µg/mL (≈ 2610 µM) | 512 µg/mL (≈ 1300 µM) | 512 µg/mL (≈ 1300 µM) | 512 µg/mL (≈ 1300 µM) | 1 | –
5 | CCN1CCN(c2cc3c(cc2F)c(=O)c(C(=O)O)cn3C2CC2)CC1 [ENROFLOXACIN] | > 128 µg/mL | 0.25 µg/mL (≈ 0.696 µM) | 0.008 µg/mL (≈ 0.0223 µM) | 0.008 µg/mL (≈ 0.0223 µM) | 0.25 µg/mL (≈ 0.696 µM) | 0.008 µg/mL (≈ 0.0223 µM) | 32 | –
6 | CC[C@H]1OC(=O)[C@H](C)[C@@H](O[C@H]2C[C@@](C)(OC)[C@@H](O)[C@H](C)O2)[C@H](C)[C@@H](O[C@@H]2O[C@H](C)C[C@H](N(C)C)[C@H]2O)[C@](C)(O)C[C@@H](C)C(=O)[C@H](C)[C@@H](O)[C@]1(C)O [ERYTHROMYCIN] | > 128 µg/mL | > 128 µg/mL | 2 µg/mL (≈ 2.73 µM) | 1 µg/mL (≈ 1.36 µM) | 2 µg/mL (≈ 2.73 µM) | 1 µg/mL (≈ 1.36 µM) | 2 | –
7 | C[n+]1c2cc(N)ccc2cc2ccc(N)cc21.[Cl-] [EUFLAVINE] | > 128 µg/mL | 4 µg/mL | 2 µg/mL | 2 µg/mL | 4 µg/mL | 2 µg/mL | 2 | –
8 | COc1c(N2CCNC(C)C2)c(F)cc2c(=O)c(C(=O)O)cn(C3CC3)c12 (stereo not given) [GATIFLOXACIN] | 32 µg/mL (≈ 85.2 µM) | 0.016 µg/mL (≈ 0.0426 µM) | 0.004 µg/mL (≈ 0.0107 µM) | 0.002 µg/mL (≈ 0.00533 µM) | 0.016 µg/mL (≈ 0.0426 µM) | 0.004 µg/mL (≈ 0.0107 µM) | 8 | –
9 | CN(C)c1ccc(C(=C2C=CC(=[N+](C)C)C=C2)c2ccc(N(C)C)cc2)cc1.[Cl-] [GENTIAN VIOLET] | 16 µg/mL | 2 µg/mL | 2 µg/mL | 2 µg/mL | 2 µg/mL | 2 µg/mL | 1 | –
10 | CC[n+]1c(-c2ccccc2)c2cc(N)ccc2c2ccc(N)cc21.[Br-] [HOMIDIUM BROMIDE] | > 128 µg/mL | 8 µg/mL | 4 µg/mL | 4 µg/mL | 8 µg/mL | 4 µg/mL | 2 | –
11 | NC[C@H]1O[C@H](O[C@H]2[C@H](O)[C@@H](O[C@H]3O[C@H](CO)[C@@H](O)[C@H](N)[C@H]3O)[C@H](N)C[C@@H]2N)[C@H](O)[C@@H](O)[C@@H]1O [KANAMYCIN] | > 128 µg/mL | > 128 µg/mL | 1 µg/mL (≈ 2.06 µM) | 1 µg/mL (≈ 2.06 µM) | 1 µg/mL (≈ 2.06 µM) | 128 µg/mL (≈ 264 µM) | 1 | –
12 | C[C@H]1COc2c(N3CCN(C)CC3)c(F)cc3c(=O)c(C(=O)O)cn1c23.C[C@H]1COc2c(N3CCN(C)CC3)c(F)cc3c(=O)c(C(=O)O)cn1c23.O [LEVOFLOXACIN] | 32 µg/mL | – | – | 0.004 µg/mL | – | 0.004 µg/mL | – | –
13 | CCn1cc(C(=O)O)c(=O)c2cc(F)c(N3CCNC(C)C3)c(F)c21 (stereo not given) [LOMEFLOXACIN] | > 128 µg/mL | 0.064 µg/mL (≈ 0.182 µM) | 0.032 µg/mL (≈ 0.0911 µM) | 0.032 µg/mL (≈ 0.0911 µM) | 0.064 µg/mL (≈ 0.182 µM) | 0.032 µg/mL (≈ 0.0911 µM) | 2 | –
14 | COc1c(N2C[C@@H]3CCCN[C@@H]3C2)c(F)cc2c(=O)c(C(=O)O)cn(C3CC3)c12 [MOXIFLOXACIN] | 32 µg/mL (≈ 79.7 µM) | 0.016 µg/mL (≈ 0.0399 µM) | 0.002 µg/mL (≈ 0.00498 µM) | 0.002 µg/mL (≈ 0.00498 µM) | 0.016 µg/mL (≈ 0.0399 µM) | 0.002 µg/mL (≈ 0.00498 µM) | 8 | –
15 | CCn1cc(C(=O)O)c(=O)c2ccc(C)nc21 [NALIDIXIC ACID] | > 128 µg/mL | 1 µg/mL (≈ 4.31 µM) | 1 µg/mL (≈ 4.31 µM) | 1 µg/mL (≈ 4.31 µM) | 2 µg/mL (≈ 8.61 µM) | 1 µg/mL (≈ 4.31 µM) | 2 | –
16 | CCn1cc(C(=O)O)c(=O)c2cc(F)c(N3CCNCC3)cc21 [NORFLOXACIN] | > 128 µg/mL | 0.25 µg/mL (≈ 0.783 µM) | 0.016 µg/mL (≈ 0.0501 µM) | 0.016 µg/mL (≈ 0.0501 µM) | 1 µg/mL (≈ 3.13 µM) | 0.016 µg/mL (≈ 0.0501 µM) | 64 | –
17 | C[C@H]1COc2c(C3(N)CC3)c(F)cc3c(=O)c(C(=O)O)cn1c23 [PAZUFLOXACIN] | 16 µg/mL (≈ 50.3 µM) | 0.016 µg/mL (≈ 0.0503 µM) | 0.004 µg/mL (≈ 0.0126 µM) | 0.004 µg/mL (≈ 0.0126 µM) | 0.016 µg/mL (≈ 0.0503 µM) | 0.004 µg/mL (≈ 0.0126 µM) | 4 | –
18 | CC/N=c1\cc2oc3cc(NCC)c(C)cc3c(-c3ccccc3C(=O)OCC)c-2cc1C.Cl [RHODAMINE 6G HYDROCHLORIDE] | > 128 µg/mL | 4 µg/mL | 4 µg/mL | 4 µg/mL | 4 µg/mL | 4 µg/mL | 1 | –
19 | CCCCCCCCCCCCOS(=O)(=O)[O-].[Na+] [SODIUM LAURYL SULFATE] | – | 128 µg/mL | 128 µg/mL | 128 µg/mL | 128 µg/mL | > 128 µg/mL | 1 | –
20 | C[C@@H]1CN(c2c(F)c(N)c3c(=O)c(C(=O)O)cn(C4CC4)c3c2F)C[C@H](C)N1 [SPARFLOXACIN] | 16 µg/mL (≈ 40.8 µM) | 0.002 µg/mL (≈ 0.0051 µM) | 0.001 µg/mL (≈ 0.00255 µM) | 0.001 µg/mL (≈ 0.00255 µM) | 0.002 µg/mL (≈ 0.0051 µM) | 0.001 µg/mL (≈ 0.00255 µM) | 2 | –
21 | CN(C)[C@@H]1C(O)=C(C(N)=O)C(=O)[C@@]2(O)C(O)=C3C(=O)c4c(O)cccc4[C@@](C)(O)[C@H]3C[C@@H]12 [TETRACYCLINE] | > 128 µg/mL | 0.25 µg/mL (≈ 0.563 µM) | 0.25 µg/mL (≈ 0.563 µM) | 0.25 µg/mL (≈ 0.563 µM) | 0.25 µg/mL (≈ 0.563 µM) | 0.125 µg/mL (≈ 0.281 µM) | 1 | –
22 | NC1CCN(c2nc3c(cc2F)c(=O)c(C(=O)O)cn3-c2ccc(F)cc2F)C1 (stereo not given) [TOSUFLOXACIN] | > 128 µg/mL | 0.032 µg/mL (≈ 0.0791 µM) | 0.002 µg/mL (≈ 0.00495 µM) | 0.002 µg/mL (≈ 0.00495 µM) | 0.032 µg/mL (≈ 0.0791 µM) | 0.002 µg/mL (≈ 0.00495 µM) | 16 | –
